Results on three compounds are retold here after patent US20150315218A1, “SALTS OF PRODRUGS OF PIPERAZINE AND SUBSTITUTED PIPERIDINE ANTIVIRAL AGENTS” (Bristol-Myers Squibb Company, priority 2004, published 2015).

Structures are written as SMILES. Structures can show the parent of a compound that is named as a salt. Where two headings read alike, the source gives them in different places.

Data set [1] is described as follows: Oral dose escalation study in rats (Study D of Ica; historical Study E of IVc). The format is in vivo. The settings on record: Sprague-Dawley, rat, plasma; for concentration at 24 h: read-out: C-24 hr; for AUC: read-out: Mean AUCtot. On the procedure:
Pharmacokinetic analysis was performed on Kinetica™.
The brain samples were blotted dry and the wet weights were recorded.

A short description of data set [2]: MAP studies G and H: PO dosing of diester IIa and monoester II′a in rats. The format is in vivo, rat. The settings on record: 5 mg/kg; for AUC / Cmax / Tmax / bioavailability / half-life: male, Sprague-Dawley, rat, plasma, po; for half-life: read-out: T½ p.o. (converted). On the procedure: Compound IVa was administered in a polyethylene glycol 400 (PEG400)/ethanol (EtOH) solution (90/10, v/v) unless noted otherwise. Plasma and tissue samples were collected and stored at −20° C. until analysis. Male Sprague-Dawley rats (300-350 g, Hilltop Lab Animals, Inc., Scottdale, Pa. 15683) with cannulas implanted in the jugular vein and/or bile duct were used in the pharmacokinetic studies of compound IVa. Rats were fasted overnight in PO studies. Blood samples (0.3 mL) were collected from the jugular vein in EDTA-containing microtainer tubes (Becton Dickinson, Franklin Lakes, N.J. 07147) to obtain plasma. […] In the PO studies, rats (n=3) received PO doses of 5 and 100 mg/kg.
The procedure for the oral dosing leg of MAP study A1 was followed except that diester IIa was utilized in place of Compound IVa. […] The data is described in Table 10 below:
The procedure for the oral dosing leg of MAP study A1 was followed except that monoester II′a was utilized in place of Compound IVa. […]

The next data set concerns HIV-1. In words: Multiple dose study in HIV patients (antiviral activity of IVa). The format is in vivo, human. On the procedure: Based on the exposure data from the studies in normal volunteers, an efficacy study was carried out in HIV patients. […] “Antiviral Activity, Safety, and Tolerability of a Novel, Oral Small-Molecule HIV-1 Attachment Inhibitor, IVa, in HIV-1-Infected Subjects” G. Hanna, J. Lalezari, J. Hellinger, D. Wohl, T. Masterson, W. Fiske, J. Kadow, P-F. Lin, M. Giordano, R. Colonno, D. Grasela. Abstract J-32, Feb. 11, 2004, 11th Conference on Retroviruses and Opportunistic Infections (CROI), San Francisco, Calif. The study design included HIV+ adults who were either antiretroviral therapy naïve or off antiretroviral therapy for ≧16 weeks. Their CD4 counts were required to be ≧250 cells/mm3 and plasma HIV-1 RNA needed to be in the range 5,000-500,000 c/mL. There were 15 subjects in each dose arm and the ratio of patients receiving drug:placebo was 4:1.
The placebo-controlled, sequential study of IVa utilized an initial dose arm of 800 mg PO every 12 h followed by a second dosing arm of 1800 mg PO administered every 12 h. It is important to note that drug was administered in a capsule and in combination with a high fat meal to increase exposure and plasma levels. Study drug was administered for 7 days and the morning of Day 8. Subjects were followed for 14 days.

The nature of data set [3]: 2-week rat toxicity study (5, 50 or 500 mg/kg BID). As to conditions: 2 weeks, in-life phase completed. It counts as in vivo. On the procedure:
A 2-week rat toxicity study using dosages of 5, 50, or 500 mg/kg BID to support the IND is ongoing (3).

The mark [4] stands for this setting: IVa following PO dosing of diester IIa.
[5] abbreviates: IVa following PO dosing of monoester II′a.
The mark [6] stands for this setting: 800 mg PO every 12 h with high fat meal.

With `COc1cnc(-n2cnc(C)n2)c2[nH]cc(C(=O)C(=O)N3CCN(C(=O)c4ccccc4)CC3)c12` [IVc], the concentration at 24 h in data set [1] (oral, 25 mg/kg) came out at 0.61 µM; in data set [1] (oral, 75 mg/kg), 5.2 µM; in data set [1] (oral, 200 mg/kg), 10 µM; in data set [1] (male, po, 5 mg/kg), 0.029 ± 0.008 µM; in data set [1] (male, po, 25 mg/kg), 0.35 ± 0.13 µM; in data set [1] (male, po, 200 mg/kg), 58 ± 36 µM. In addition, the maximum concentration (Cmax) (as a rule, the peak of the concentration-time curve) is 46 µM in data set [1] (po, 25 mg/kg); 86 µM in data set [1] (po, 75 mg/kg); 42 µM in data set [1] (po, 200 mg/kg); 29 ± 14 µM in data set [1] (male, po, 5 mg/kg); 98 ± 21 µM in data set [1] (male, po, 25 mg/kg); 281 ± 55 µM in data set [1] (male, po, 200 mg/kg). The Tmax (usually the time at which the peak concentration occurs) in data set [1] (po, 25 mg/kg) came to 4 h; in data set [1] (po, 75 mg/kg) it was 5 h; in data set [1] (po, 200 mg/kg), 4 h; in data set [1] (male, po, 5 mg/kg), 0.5 ± 0.25 h; in data set [1] (male, po, 25 mg/kg), 1.7 ± 2 h; in data set [1] (male, po, 200 mg/kg), 1.1 ± 0.8 h. Also, the AUC in data set [1] (po, 25 mg/kg) turned out to be 458 µM·h; in data set [1] (po, 75 mg/kg), 1070 µM·h; in data set [1] (po, 200 mg/kg), 518 µM·h; in data set [1] (male, po, 5 mg/kg), 109 ± 15 µM·h; in data set [1] (male, po, 25 mg/kg) it was 586 ± 53 µM·h; in data set [1] (male, po, 200 mg/kg) it was 2920 ± 304 µM·h.

On to `COc1ncc(OC)c2c(C(=O)C(=O)N3CCN(C(=O)c4ccccc4)CC3)c[nH]c12` [IVa, N-(benzoyl)-N′-[(4,7-dimethoxy-6-azaindol-3-yl)-oxoacetyl]piperazine], for which, in data set [2] (setting [4]), the “Cp @ 24 hr p.o. (nM)” value is recorded as “Not detected”, the AUC stood at 4 ± 1 µM·h, the Cmax amounted to 1.12 ± 0.27 µM and the Tmax turned out to be 2.7 ± 1.2 h. In addition, in data set [2] (setting [4]), the bioavailability (usually dose-corrected exposure relative to a reference, in per cent) turned out to be 33% and the half-life was 1.3 ± 0.26 h. Besides, in data set [2] (IVa following PO dosing of monoester II′a, n = 2/3), the “Cp @ 24 hr p.o. (nM)” value is 3.61 (n = 2/3) nM. Also, in data set [2] (setting [5]), the AUC turned out to be 5.9 ± 2.2 µM·h, the highest level (Cmax) was 1.59 ± 0.615 µM, the Tmax was found to be 2 ± 1.7 h and the bioavailability was found to be 44%. Also, in data set [2] (setting [5]), the half-life is 2.8 ± 1.6 h. Moreover, in the data set with HIV-1 (setting [6]), the “Day 8 Change in CD4, Mean (SD)” value is listed as 106 (151) cells/mm3; the “Day 8 Change in CD4, Range” value was −214 to +272 cells/mm3; the “Maximal Change in HIV RNA Over 14 days >0.5 log10 c/mL, n (%)” value was 8 (67%) n (%); the “Maximal Change in HIV RNA Over 14 days >1.0 log10 c/mL, n (%)” value is given as 7 (58%) n (%). Moreover, in the data set with HIV-1 (setting [6]), the “Maximal Change in HIV RNA Over 14 days >1.5 log10 c/mL, n (%)” value is 3 (25%) n (%); the “Maximal change in HIV RNA Over 14 days, Mean (SD)” value is on record as −1.00 (0.50) log10 c/mL; the “Maximal change in HIV RNA Over 14 days, Range” value is on record as −0.32 to −1.60 log10 c/mL. For the same compound, the “Day 8 Change in HIV RNA, Mean (SD)” value in the data set on HIV-1 (800 mg PO every 12 h with high fat meal, HIV+ adults) is −0.72 (0.51) log10 c/mL. For the same compound, the “patients with >1.0 log drop in viral load” value in the data set with HIV-1 (800 mg dosing level with high fat meal) worked out at 58%. Further, the “mean response (drop in viral load)” value in the data set with HIV-1 (1800 mg every 12 h with high fat meal) is on record as −0.96 log 10.

For `COc1cnc(OC)c2c1c(C(=O)C(=O)N1CCN(C(=O)c3ccccc3)CC1)cn2COP(=O)(O)O` [Iab, {3-[(4-benzoylpiperazin-1-yl)(oxo)acetyl]-4,7-dimethoxy-1H-pyrrolo[2,3-c]pyridin-1-yl}methyl dihydrogen phosphate, L-lysine salt (1:1)], the in-life observations entry in data set [3] was “no noteworthy in-life observations”.
